In patent publication US20260297080A1, “BICYCLIC COMPOUNDS AS CDK INHIBITORS” (BeOne Medicines I GmbH, priority 2022, published 2026):

Legend:
[1] = molecular target: CDK1/Cyclin B1 (Homo sapiens, UniProt P06493); test: CDK1/Cyclin B1 Biochemical Assay (TR-FRET), 0.015 mM ATP; conditions: 0.15 μM Rb (Ser780)-biotin substrate, pH7.0, 60 min preincubation, 120 min reaction, room temperature
Summary of the method: (§1)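 Kinase preincubated with compound (0–10 μM) 60 min at room temperature, then reaction started with ATP and 0.15 μM Rb (Ser780)-biotin peptide and run 120 min in HEPES pH 7.0 buffer with 50 mM MgCl2. Phospho-Rb detected by Eu-cryptate anti-pRb(Ser780)/streptavidin-XL665 TR-FRET (665/620 nm ratio); IC50 from four-parameter logistic fit.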

[2] = molecular target: CDK2/Cyclin E1 (Homo sapiens, UniProt P24941); test: CDK2/Cyclin E1 Biochemical Assay (TR-FRET), 0.060 mM ATP; conditions: 0.15 μM Rb (Ser780)-biotin substrate, pH7.0, 60 min preincubation, 120 min reaction, room temperature
Summary of the method: as §1

CDK1/Cyclin B1, sequence (P06493 whole entry): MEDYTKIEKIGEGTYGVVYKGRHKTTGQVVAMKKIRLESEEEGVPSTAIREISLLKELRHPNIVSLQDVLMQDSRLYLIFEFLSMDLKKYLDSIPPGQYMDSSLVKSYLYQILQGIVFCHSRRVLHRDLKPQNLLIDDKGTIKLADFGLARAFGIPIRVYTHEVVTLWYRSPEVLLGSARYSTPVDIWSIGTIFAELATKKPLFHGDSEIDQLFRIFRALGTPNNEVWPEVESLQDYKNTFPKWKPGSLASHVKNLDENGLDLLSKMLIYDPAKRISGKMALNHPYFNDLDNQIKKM
CDK1/Cyclin B1, sequence (P14635 whole entry partner): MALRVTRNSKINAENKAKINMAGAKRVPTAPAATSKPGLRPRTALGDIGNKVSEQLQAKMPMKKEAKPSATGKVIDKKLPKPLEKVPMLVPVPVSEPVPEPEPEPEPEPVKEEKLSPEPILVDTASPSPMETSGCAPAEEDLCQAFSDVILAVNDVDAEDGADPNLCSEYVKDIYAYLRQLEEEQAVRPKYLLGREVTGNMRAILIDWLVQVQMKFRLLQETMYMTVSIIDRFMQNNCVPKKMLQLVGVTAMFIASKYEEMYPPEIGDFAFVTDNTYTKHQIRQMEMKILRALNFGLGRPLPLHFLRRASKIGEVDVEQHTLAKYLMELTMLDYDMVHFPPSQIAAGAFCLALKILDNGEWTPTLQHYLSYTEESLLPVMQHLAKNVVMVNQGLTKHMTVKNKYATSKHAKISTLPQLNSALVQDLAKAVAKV

Row | SMILES | IC50 [1] [nM] | IC50 [2] [nM]
1 | CC(C)NC(=O)O[C@H]1CC[C@@H](c2cc(Nc3ccc4c(c3F)CN(C3CCN(S(C)(=O)=O)CC3)S4(=O)=O)n[nH]2)C1 (relative stereo) [Example 77, cis-3-(3-((4-fluoro-2-(1-(methylsulfonyl)piperidin-4-yl)-1,1-dioxido-2,3-dihydrobenzo[d]isothiazol-5-yl)amino)-1H-pyrazol-5-yl)cyclopentyl isopropylcarbamate] | 621 | 10
2 | CC(=O)N1CCC(N2Cc3c(ccc(Nc4cc([C@@H]5CC[C@H](OC(=O)NC(C)C)C5)[nH]n4)c3F)S2(=O)=O)CC1 (relative stereo) [Example 78, cis-3-(3-((2-(1-acetylpiperidin-4-yl)-4-fluoro-1,1-dioxido-2,3-dihydrobenzo[d]isothiazol-5-yl)amino)-1H-pyrazol-5-yl)cyclopentyl isopropylcarbamate] | 556 | 8.9
3 | CC(C)NC(=O)O[C@H]1CC[C@@H](c2cc(Nc3ccc4c(c3F)CN(C3CCNC3=O)S4(=O)=O)n[nH]2)C1 (relative stereo) [Example 79, cis-3-(3-((4-fluoro-1,1-dioxido-2-(2-oxopyrrolidin-3-yl)-2,3-dihydrobenzo[d]isothiazol-5-yl)amino)-1H-pyrazol-5-yl)cyclopentyl isopropylcarbamate] | 638 | 8.3
4 | CC(=O)N1CCC(N2Cc3c(ccc(Nc4cc([C@@H]5CC[C@H](OC(=O)NC(C)C)C5)[nH]n4)c3F)S2(=O)=O)C1 (relative stereo) [Example 80, cis-3-(3-((2-(1-acetylpyrrolidin-3-yl)-4-fluoro-1,1-dioxido-2,3-dihydrobenzo[d]isothiazol-5-yl)amino)-1H-pyrazol-5-yl)cyclopentyl isopropylcarbamate] | 767 | 10
5 | CC(C)NC(=O)O[C@H]1CC[C@@H](c2cc(Nc3ccc4c(c3F)CN(C3CCNC(=O)C3)S4(=O)=O)n[nH]2)C1 (relative stereo) [Example 81, cis-3-(3-((4-fluoro-1,1-dioxido-2-(2-oxopiperidin-4-yl)-2,3-dihydrobenzo[d]isothiazol-5-yl)amino)-1H-pyrazol-5-yl)cyclopentyl isopropylcarbamate] | 537 | 7.2
6 | CC(C)NC(=O)O[C@H]1CC[C@@H](c2cc(Nc3ccc4c(c3F)CN(C3CCC(=O)NC3)S4(=O)=O)n[nH]2)C1 (relative stereo) [Example 82, cis-3-(3-((4-fluoro-1,1-dioxido-2-(6-oxopiperidin-3-yl)-2,3-dihydrobenzo[d]isothiazol-5-yl)amino)-1H-pyrazol-5-yl)cyclopentyl isopropylcarbamate] | 381 | 10
7 | CC(C)NC(=O)O[C@H]1CC[C@@H](c2cc(Nc3ccc4c(c3F)CN(C3CCC(=O)N(C)C3)S4(=O)=O)n[nH]2)C1 (relative stereo) [Example 83, cis-3-(3-((4-fluoro-2-(1-methyl-6-oxopiperidin-3-yl)-1,1-dioxido-2,3-dihydrobenzo[d]isothiazol-5-yl)amino)-1H-pyrazol-5-yl)cyclopentyl isopropylcarbamate] | 565 | 15
8 | CC(C)NC(=O)O[C@H]1CC[C@@H](c2cc(Nc3ccc4c(c3F)CN(C3CC(O)C3)S4(=O)=O)n[nH]2)C1 (relative stereo) [Example 84, 3-(3-((4-fluoro-2-(3-hydroxycyclobutyl)-1,1-dioxido-2,3-dihydrobenzo[d]isothiazol-5-yl)amino)-1H-pyrazol-5-yl)cyclopentyl isopropylcarbamate] | 390 | 8.6

Next, values leading:

Row | IC50 [1] [nM] | IC50 [2] [nM] | SMILES
9 | 470 | 4.6 | CC(C)NC(=O)O[C@H]1CC[C@@H](c2cc(Nc3ccc4c(c3F)CN(C3CCN(S(C)(=O)=O)C3)S4(=O)=O)n[nH]2)C1 (relative stereo) [Example 85, cis-3-(3-((4-fluoro-2-(1-(methylsulfonyl)pyrrolidin-3-yl)-1,1-dioxido-2,3-dihydrobenzo[d]isothiazol-5-yl)amino)-1H-pyrazol-5-yl)cyclopentyl isopropylcarbamate]
10 | 735 | 7.8 | CC(C)NC(=O)O[C@H]1CC[C@@H](c2cc(Nc3ccc4c(c3F)CN(C3CCCNC3=O)S4(=O)=O)n[nH]2)C1 (relative stereo) [Example 86, cis-3-(3-((4-fluoro-1,1-dioxido-2-(2-oxopiperidin-3-yl)-2,3-dihydrobenzo[d]isothiazol-5-yl)amino)-1H-pyrazol-5-yl)cyclopentyl isopropylcarbamate]
11 | 1090 | 29 | CC(C)NC(=O)O[C@H]1CC[C@@H](c2cc(Nc3ccc4c(c3F)CN(C3CCN(Cc5ccccc5)C3)S4(=O)=O)n[nH]2)C1 (relative stereo) [Example 87, cis-3-(3-((2-(1-benzylpyrrolidin-3-yl)-4-fluoro-1,1-dioxido-2,3-dihydrobenzo[d]isothiazol-5-yl)amino)-1H-pyrazol-5-yl)cyclopentyl isopropylcarbamate]
12 | 1010 | 10 | CC(C)NC(=O)O[C@H]1CC[C@@H](c2cc(Nc3ccc4c(c3F)CN(C3CCCN(C)C3=O)S4(=O)=O)n[nH]2)C1 (relative stereo) [Example 88, cis-3-(3-((4-fluoro-2-(1-methyl-2-oxopiperidin-3-yl)-1,1-dioxido-2,3-dihydrobenzo[d]isothiazol-5-yl)amino)-1H-pyrazol-5-yl)cyclopentyl isopropylcarbamate]
13 | 879 | 34 | CC(C)NC(=O)O[C@H]1CC[C@@H](c2cc(Nc3ccc4c(c3F)CN(C3CN(S(C)(=O)=O)C3)S4(=O)=O)n[nH]2)C1 (relative stereo) [Example 89, cis-3-(3-((4-fluoro-2-(1-(methylsulfonyl)azetidin-3-yl)-1,1-dioxido-2,3-dihydrobenzo[d]isothiazol-5-yl)amino)-1H-pyrazol-5-yl)cyclopentyl isopropylcarbamate]
14 | 762 | 20 | CC(=O)N1CC(N2Cc3c(ccc(Nc4cc([C@@H]5CC[C@H](OC(=O)NC(C)C)C5)[nH]n4)c3F)S2(=O)=O)C1 (relative stereo) [Example 90, cis-3-(3-((2-(1-acetylazetidin-3-yl)-4-fluoro-1,1-dioxido-2,3-dihydrobenzo[d]isothiazol-5-yl)amino)-1H-pyrazol-5-yl)cyclopentyl isopropylcarbamate]
15 | 945 | 24 | CC(C)NC(=O)O[C@H]1CC[C@@H](c2cc(Nc3ccc4c(c3F)CN(C3CN(C)C3)S4(=O)=O)n[nH]2)C1 (relative stereo) [Example 91, cis-3-(3-((4-fluoro-2-(1-methylazetidin-3-yl)-1,1-dioxido-2,3-dihydrobenzo[d]isothiazol-5-yl)amino)-1H-pyrazol-5-yl)cyclopentyl isopropylcarbamate]
16 | 1550 | 36 | CC(C)NC(=O)O[C@H]1CC[C@@H](c2cc(Nc3ccc4c(c3F)CN(C3CN(Cc5ccccc5)C3)S4(=O)=O)n[nH]2)C1 (relative stereo) [Example 92, cis-3-(3-((2-(1-benzylazetidin-3-yl)-4-fluoro-1,1-dioxido-2,3-dihydrobenzo[d]isothiazol-5-yl)amino)-1H-pyrazol-5-yl)cyclopentyl isopropylcarbamate]
